Results as given in patent US20130189358A1, “SAXAGLIPTIN PHARMACEUTICAL FORMULATIONS” (priority 2012, published 2013).
Structures can show the parent of a compound that is named as a salt.

Experiment: Impurity levels 30 days after tablet manufacture (storage stability)
Format: physicochemical
Conditions: 30 days after manufacture, storage at RT (15-29° C.) and NMT 67% RH; % wt impurity
Experimental: As used herein, unless indicated otherwise, the amount of saxagliptin cyclic amidine in the dosage forms following manufacture of the pharmaceutical dosage forms are measured following storage for 30 days at room temperature conditions (typically manufacture (following storage at room temperature (i.e. typically a temperature of between 15-29° C.), and at a relative humidity of not more than 67%.
Measurements of % wt impurities herein (oxamidine, cyclic amidine, etc) are taken 30 days after manufacture of the formulations [storage at ambient conditions, i.e. room temperature (RT) of between 15-29° C. and not more than 67% relative humidity (RH)].
Formulation #1 Excluding Cosmetic Coating—Analytical Data (30 Days after Tablet Manufacture)

Cyclic Amidine level: <0.03% | Greatest Unknown Impurity level: 0.19% | Oxamidine level: <0.03% | Total Impurity level: 0.23%
Compound: N#C[C@@H]1C[C@@H]2C[C@@H]2N1C(=O)[C@@H](N)C12CC3CC(CC(O)(C3)C1)C2 [Saxagliptin HCl, (1S,3S,5S)-2-((2S)-2-amino-2-(3-hydroxyadamantan-1-yl)-acetyl)-2-azabicyclo[3.1.0]hexane-3-carbonitrile]
